# Results published in US20260216135A1, “ANTIVIRAL PHARMACEUTICAL COMPOSITION AND PREPARATION METHOD THEREFOR” (priority 2023, published 2026).
# Where two headings read alike, the source gives them in different places.
# Tests used:
# [1] = test system: SARS-CoV-2 Delta strain; conditions: for Viral load, brain tissue, Day 4 / Viral load, lung tissue, Day 2: intragastric BID, mean ± SD
# [2] = test system: 47 safety-related targets; conditions: read-out: EC50 for 47 safety-related targets (inhibition or activation)
# From the text: For 78 tests related to 47 safe targets, the experimental methods used included: CAMP assay, calcium flux assay, hormone nuclear receptor assay, kinase binding assay, enzyme activity assay, neurotransmitter transporter assay, ion channel assay, and transporter assay.
# [3] = test system: SARS-CoV-2 Omicron strain (B.1.1.529); assay: microbe, parasite or virus in culture; conditions: Severe acute respiratory syndrome coronavirus 2, Vero C1008, read-out: IC50 (μM), Vero E6 Omicron strain (B.1.1.529)
# [4] = 200 mg/kg + ritonavir 50 mg/kg, listed as compound of formula (I)
smiles,measurement,setting,value
CC(C)(C)[C@H](NC(=O)C(F)(F)F)C(=O)N1CC2(C[C@H]1C(=O)N[C@H](C#N)C[C@@H]1CCNC1=O)SCCS2 [Compound of formula (I)],"Viral load, brain tissue, Day 4",[1]; 50 mg/kg + ritonavir 50 mg/kg,2.88 ± 1.26 log10 copies/mg
same,"Viral load, lung tissue, Day 2",[1]; 50 mg/kg + ritonavir 50 mg/kg,7.66 ± 0.27 log10 copies/g
same,"Viral load, lung tissue, Day 2","[1]; 50 mg/kg + ritonavir 50 mg/kg, listed as compound of formula (I)",7.66 log10 copies/g
same,"Viral load, brain tissue, Day 4",[1]; 200 mg/kg + ritonavir 50 mg/kg,0.99 ± 0.42 log10 copies/mg
same,"Viral load, lung tissue, Day 2",[1]; 200 mg/kg + ritonavir 50 mg/kg,6.79 ± 0.30 log10 copies/g
same,"Viral load, brain tissue, Day 4",[1]; [4],comparable to that of the uninfected normal group
same,"Viral load, lung tissue, Day 2",[1]; [4],6.79±0.30 log10 copies/g
same,Histopathological analysis of the lungs,"[1]; 200 mg/kg, compared with model group",significantly ameliorated lung damage
same,Body weight of mice,"[1]; mouse, in vivo",not significantly reduced
same,Reduction of viral copy number in the lungs compared with the model group,"[1]; mouse, in vivo",2.4 log 10 copies/g
same,Reduction of viral titer in the lungs compared to the model group,"[1]; mouse, in vivo",more than 3 log 10 PFU/g
same,Virus titer in the brains (plaque assay),"[1]; mouse, in vivo",no virus titer was detected
same,EC50,[2],> 100000 nM
same,IC50,[3],0.12 µM
